Data on 10 compounds can be found in PubChem BioAssay (NCI).

What all share (assay): growth of human tumour cells (NCI), 48 h
Test [1] has as its system 786-0 renal.
Test [2] concerns A549 NSCLC.
The test system of test [3] is CAKI-1 renal.
The test system of test [4] is CCRF-CEM leukemia.
The subject of test [5] is HCC-2998 colon.
The subject of test [6] is HCT-116 colon.
Test [7] relates to HCT-15 colon.
Test [8] deals with HOP-92 NSCLC.
For test [9], the system named is KM20L2 colon.
Test [10] has as its system MALME-3M melanoma.
Test [11] has as its system NCI-H522 lung.
Test [12] relates to OVCAR-4 ovarian.
Test [13] relates to RXF 393 renal.
Test [14] deals with SK-MEL-2 melanoma.
Test [15] has as its system SK-MEL-5 melanoma.
The subject of test [16] is SK-OV-3 ovarian.
Test [17] has as its system UO-31 renal.
Test [18] has as its system DU-145 prostate.
Test [19] deals with MCF7 breast.
Test [20] deals with MDA-N.

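Each compound was tested at five concentrations against cells in 96-well plates for 48 hours. TGI is the concentration that stops growth completely.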 A value given as a limit tells only on which side of the number the result lay.

Take `C#CC(C)(C)OCCCCOc1cc(O)c2c(=O)c3ccccc3n(C)c2c1`: the TGI in test [1], in test [2], in test [3], in test [4], in test [5] and in [6] was greater than 100 µM in each case. Also, the TGI in test [7], in test [8], in [9], in test [10], in test [11] and in test [12] was greater than 100 µM each time. Also, the TGI in [13], in test [14], in [15], in test [16] and in test [17] was greater than 100 µM each time.

As to `CC12C3CC4C5CC(C(C53)[C@@H]1NCc1ccccc1)C42` (stereo partly specified), the TGI in test [1] is greater than 100 µM; in test [2] it was greater than 100 µM; in test [3] it was greater than 100 µM; in test [4], greater than 100 µM; in test [5], 41.8 µM; in test [6], greater than 100 µM. The TGI in test [7], in test [8], in test [9], in test [10], in test [11] and in test [12] was greater than 100 µM throughout. Besides, the TGI in [13], in [14], in test [15], in test [16] and in test [17] was greater than 100 µM in each case.

On to `CCc1ccc(Cc2ccc(CC)c(NC(=O)C(=O)C3NC(=S)NC3=O)c2CC)c(CC)c1NC(=O)C(=O)C1NC(=S)NC1=O` (stereo unspecified), for which the TGI in [1], in [2], in test [3], in test [4], in test [5] and in test [6] was greater than 100 µM throughout. For the same compound, the TGI in [7], in test [8], in test [9], in [10], in test [11] and in [12] was greater than 100 µM in each case. Besides, the TGI in [13], in [14], in [15], in test [16] and in [17] was greater than 100 µM throughout.

Regarding `CSc1ccc2c(cc1=O)C(NC(=O)c1ccccc1)CCc1cc(O)c(O)c(O)c1-2` (stereo unspecified), the TGI in test [1] was greater than 100 µM; in [2] it was greater than 100 µM; in [3], 88 µM; in test [4] it was greater than 100 µM; in test [5], 36.2 µM; in test [6], 36.4 µM. Besides, the TGI in test [7] was 35.3 µM; in test [8] it was 38.5 µM; in [9], 3.62 µM; in test [10] it was greater than 100 µM; in test [11], 35.6 µM; in [12], 33.2 µM. For the same compound, the TGI in [13] was greater than 100 µM; in [14], greater than 100 µM; in [15] it was 12.7 µM; in test [16] it was greater than 100 µM; in [17], greater than 100 µM.

Consider `O=C(O[C@H]1[C@@H]2C=CO[C@@H](OC3OC(CO)C(O)C(O)C3O)[C@@H]2[C@@]2(CO)O[C@@H]12)c1ccc(O)c(O)c1` (stereo partly specified), for which the TGI in test [1], in test [2], in [3], in [4], in test [5] and in [8] was greater than 100 µM in each case. Also, the TGI in [9], in test [10], in [11], in test [12], in test [13] and in test [14] was greater than 100 µM in each case. The TGI in test [15], in test [16] and in test [17] was greater than 100 µM throughout.

In the case of `O=C1NC(=S)NC(=O)C1=CC1CC1`, the TGI in test [1], in test [2], in test [3], in test [4], in [5] and in test [6] was greater than 100 µM in each case. Besides, the TGI in test [7], in test [8], in [9], in test [10], in [11] and in test [12] was greater than 100 µM in each case. In addition, the TGI in [13], in test [14], in test [15], in [16] and in test [17] was greater than 100 µM each time.

On to `Cc1nc(-n2nc(-c3ccccc3)cc2-c2ccccc2)sc1C(=O)/C=C/c1ccc([N+](=O)[O-])cc1`, for which the TGI in test [1] is 29.8 µM; in test [2], greater than 100 µM; in test [3], greater than 55 µM; in test [4], 48.1 µM; in test [18], greater than 100 µM; in [5] it was 38.1 µM. Besides, the TGI was 28.3 µM in test [6]; greater than 61.9 µM in [7]; greater than 85.7 µM in test [8]; greater than 100 µM in [9]; greater than 100 µM in test [10]; greater than 100 µM in test [19]. Further, the TGI in test [20] is 59.8 µM; in test [11], 66.1 µM; in test [12], greater than 100 µM; in test [13], 49.3 µM; in test [14], greater than 100 µM; in [15], greater than 56.4 µM. For the same compound, the TGI in test [16] was greater than 100 µM; in [17] it was greater than 54 µM.

For the compound `O=c1[nH]nc(CNc2ccc(Cl)cc2Cl)c2ccccc12`, the TGI in test [1] was 41.3 µM; in test [2], 43.2 µM; in [3], 51.7 µM; in [4] it was greater than 100 µM; in test [5], 44.5 µM; in test [6], 66.3 µM. Moreover, the TGI in [7] was 89.1 µM; in test [8], 80.1 µM; in [9], 75.2 µM; in test [10], 49.7 µM; in test [11], 41.7 µM; in test [12], 39.8 µM. Besides, the TGI in [13] is 34.9 µM; in test [14] it was greater than 100 µM; in [15] it was 50.6 µM; in [16] it was 38.1 µM; in [17], 33.7 µM.

Turning to `CC(C)(C)OC(=O)N1CC(C)(C)N2C(=O)C3(CCCO3)C12` (stereo unspecified), the TGI in [1], in test [2], in test [3], in [4], in test [5] and in test [6] was greater than 100 µM throughout. Also, the TGI in test [7], in test [8], in [9], in [10], in test [11] and in test [12] was greater than 100 µM each time. In addition, the TGI in [13], in [14], in [15], in [16] and in test [17] was greater than 100 µM each time.

For the compound `CCc1cccc(C(C)CC)c1NC(=O)C(=O)Cc1nc2ccccc2o1` (stereo unspecified), the TGI in test [1], in test [2], in [3], in test [4], in test [5] and in [6] was greater than 50 µM throughout. Also, the TGI in [7], in test [8], in [9], in [10], in [11] and in [12] was greater than 50 µM each time. The TGI in test [13], in test [14], in test [15], in test [16] and in [17] was greater than 50 µM throughout.
